From publication PMC12430133, “GABAergic and α-Glucosidase-Inhibitory Potentials of Fractions and Isolated Xanthones from Hypericum revolutum Vahl subsp. revolutum” (Molecules, 2025)

Key:
[1] = biological target: T1, GABAA receptor subtype (α1, β2, and γ2S subunits) (Homo sapiens, UniProt P14867+P18507+P47870); test: Functional GABAA receptor assay: modulation of GABA-induced chloride currents (IGABA), two-microelectrode voltage clamp in Xenopus laevis oocytes; assay type: cell-based; conditions: 100 µg/mL, isolated compounds; for IGABA potentiation: GABA EC10, mean ± S.E.M
T1 construct: expressed in transfected cells; host or cells: Xenopus laevis oocytes (Ecocyte), cRNA-injected
T1 sequence (P14867 28-456): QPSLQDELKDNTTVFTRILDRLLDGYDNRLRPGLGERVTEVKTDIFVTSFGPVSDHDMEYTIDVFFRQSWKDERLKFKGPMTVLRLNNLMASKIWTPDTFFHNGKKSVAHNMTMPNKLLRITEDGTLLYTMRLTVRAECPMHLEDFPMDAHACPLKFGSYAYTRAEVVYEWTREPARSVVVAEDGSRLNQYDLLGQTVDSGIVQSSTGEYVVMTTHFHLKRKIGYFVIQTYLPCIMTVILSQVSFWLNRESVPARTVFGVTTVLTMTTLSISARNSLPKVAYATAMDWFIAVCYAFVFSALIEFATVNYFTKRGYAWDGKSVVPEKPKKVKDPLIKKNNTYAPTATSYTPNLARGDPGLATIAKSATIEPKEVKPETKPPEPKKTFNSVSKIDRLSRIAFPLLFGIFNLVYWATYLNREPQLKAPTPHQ
T1 sequence (P47870 25-512 limits assumed): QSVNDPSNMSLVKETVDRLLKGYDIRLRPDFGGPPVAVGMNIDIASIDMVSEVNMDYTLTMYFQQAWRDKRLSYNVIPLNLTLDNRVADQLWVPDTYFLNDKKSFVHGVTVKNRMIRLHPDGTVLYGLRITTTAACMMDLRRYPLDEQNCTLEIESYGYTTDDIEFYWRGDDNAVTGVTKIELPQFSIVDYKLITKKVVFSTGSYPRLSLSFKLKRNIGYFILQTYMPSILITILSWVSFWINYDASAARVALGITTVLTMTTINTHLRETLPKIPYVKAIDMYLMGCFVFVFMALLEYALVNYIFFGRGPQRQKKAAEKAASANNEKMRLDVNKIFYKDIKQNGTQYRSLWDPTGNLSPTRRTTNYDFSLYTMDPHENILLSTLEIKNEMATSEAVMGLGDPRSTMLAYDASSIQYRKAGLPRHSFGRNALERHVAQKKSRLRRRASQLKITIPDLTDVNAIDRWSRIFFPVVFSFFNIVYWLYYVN
T1 sequence (P18507 40-467 isoform P18507-1 limits assumed): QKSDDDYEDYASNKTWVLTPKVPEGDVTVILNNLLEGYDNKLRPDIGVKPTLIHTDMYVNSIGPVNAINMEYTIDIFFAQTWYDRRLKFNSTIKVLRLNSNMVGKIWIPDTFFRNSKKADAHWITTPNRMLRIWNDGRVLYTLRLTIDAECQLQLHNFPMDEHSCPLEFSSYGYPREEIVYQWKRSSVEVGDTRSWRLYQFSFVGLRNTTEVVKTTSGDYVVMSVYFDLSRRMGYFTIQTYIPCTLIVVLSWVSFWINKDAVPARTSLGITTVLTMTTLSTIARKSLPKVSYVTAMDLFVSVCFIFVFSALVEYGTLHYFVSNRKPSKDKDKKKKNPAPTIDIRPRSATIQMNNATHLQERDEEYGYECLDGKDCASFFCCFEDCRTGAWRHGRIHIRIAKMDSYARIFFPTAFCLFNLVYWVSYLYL
Protocol: The effects of both fractions and isolated compounds from the PS and PL extracts were determined on GABA-induced chloride currents through the predominantly occurring GABAA receptor subtype (comprising α1, β2, and γ2S subunits). GABAA receptors were heterologously expressed in Xenopus laevis (Grade I–II) oocytes as described previously. The fractions and compounds were tested at a concentration of 100 µg/mL. For the fractions, a 100 µg/mL concentration was used in assessing their IGABA modulatory potential because previous studies have also used the same concentration to assess the IGABA modulatory potential of plant extracts and/or fractions in a similar experimental model. For the compounds, we tested their IGABA modulatory potential at 100 µg/mL to maintain a consistent concentration as the fractions, which provides a comparative perspective about the efficacy of the compounds relative to the fractions.
In brief, defolliculated oocytes were obtained from Ecocyte (Dortmund, Germany) and injected with 50–75 nL of nuclease-free water containing a mixture (ratio 1:1:10) of cRNAs encoding for the major GABAA receptor subtype (α1, β2, and γ2S; concentrations ranging between 100 and 2000 ng/μL/subunit) using a Nanoject III microinjector (Drummond Scientific Company, Broomall, PA, USA). Oocytes were stored at 18 °C in ND96 solution composed of 90 mM NaCl, 1 mM KCl, 1 mM MgCl2·6H2O, 1 mM CaCl2, and 5 mM 2-(4-(2-hydroxyethyl)-1-piperazinyl)ethanesulfonic acid (HEPES), with pH adjusted to 7.4 using 1 M NaOH and supplemented with 100 U/mL penicillin and 10 µg/mL streptomycin. Functional characterisation was then carried out 1–3 days post-injection using two-microelectrode voltage-clamp (TEVC) recordings holding oocytes at −70 mV using a TURBO TEC 03C amplifier (NPI Electronic, Tamm, Germany) connected to an Axon Digidata 1440A digitiser (Molecular Devices, Sunnyvale, CA, USA). Data acquisition was performed using pCLAMP software version 10.3 (Molecular Devices), and current traces were analysed offline. Microelectrodes were filled with 2 M KCl and had resistances between 1 and 3 MΩ. GABA and test compounds were applied using a TECAN Miniprep 60 (npi electronic, Tamm, Germany), permitting semi-automation of the experiments coupled to a fast perfusion system. The oocyte-containing chamber was perfused with 200 µL GABA-containing solutions at a volume rate between 150 and 200 µL/s to elicit chloride currents through GABAA receptors (IGABA). Modulation of IGABA by the compounds was measured at a GABA concentration eliciting 10% of the maximal current amplitude (EC10), peak amplitudes were measured, and the effect was calculated using the following formula: IGABA potentiation%=Amplitude IGABA−sample−Amplitude IGABA−control/Amplitude IGABA−control×100
IGABA+Sample is the current induced by co-application of GABA and the tested sample, while IGABA−control is the current induced by application of GABA alone.

α-glucosidase = test: In vitro α-glucosidase-inhibitory assay; assay type: biochemical
Protocol: The alpha-glucosidase-inhibitory potency of the fractions was assessed by determining whether the fractions can inhibit the activity of α-glucosidase, a carbohydrate-digesting enzyme. The fractions were tested at a concentration of 60 µg/mL.
A previous method [66] was adopted to perform the glucosidase inhibition assay. It was performed on a 96-well transparent plate. […] Next, 50 µL of 10 mM 4-nitrophenyl-β-D-glucopyranoside substrate solution (dissolved in 100 mM phosphate buffer, pH 6.8) was added, and incubation continued for an additional 20 min under the same incubation conditions. After incubation, the enzyme-substrate reaction was stopped by adding 100 µL of a 0.1 M Na2CO3 solution, and absorbance was measured at 405 nm. The absorbances were blanked using the sample and solvent blanks. The enzyme inhibition activity of the samples was computed using the formula below: Enzyme inhibition activity%=Absorbance of control−Absorbance of test/Absorbance of control×100

Row | Structure (SMILES) | IGABA potentiation [1] [%] | Effect on IGABA (in words) [1] | IC50 (α-glucosidase; dose-dependent assay 1.5625–100 µM, isolated compound and acarbose, read-out: α-glucosidase inhibition IC50) [µM] | Glucosidase-Inhibitory Activity (%) (α-glucosidase; tested at 60 μg/mL, fractions from MeOH extract of PS (plant stem) and acarbose, NAD = no activity detected)
1 | COc1cc([C@@H]2Oc3c(OC)cc4c(=O)c5ccccc5oc4c3O[C@H]2CO)ccc1O (relative stereo) [Compound 3, trans-3-(4-hydroxy-3-methoxyphenyl)-2-(hydroxymethyl)-5-methoxy-2,3-dihydro-7H-[1,4]dioxino[2,3-c]xanthen-7-one] | 5 ± 7 | inactive | 45.1 | 
2 | C[C@H]1O[C@H](O[C@H]2[C@H](O)[C@@H](O)[C@@H](O[C@H]3[C@H](O)[C@@H](O)C(O)O[C@@H]3CO)O[C@@H]2CO)[C@H](O)[C@@H](O)[C@@H]1N[C@H]1C=C(CO)[C@@H](O)[C@H](O)[C@H]1O (some centres unmarked) [Acarbose, acarbose, reference compound] |  |  |  | 94.3 ± 1.86
3 | COc1cc2c(=O)c3ccccc3oc2c(O)c1OC [Compound 1, 4-hydroxy-2,3-dimethoxy-9H-xanthen-9-one] | 65 ± 13 | significantly enhanced IGABA |  | 
4 | COc1cc2c(=O)c3ccccc3oc2c(OC)c1O [Compound 2, 3-hydroxy-2,4-dimethoxy-9H-xanthen-9-one] | 36 ± 9 | significantly enhanced IGABA |  | 
